In paper PMC5428881 (Chemical communications (Cambridge, England), 2011):

Test system: HeLa cells
Test: Cell permeability by fluorescence activated cell sorting
Assay type: cell-based
Conditions: FACS, 10 μM N-terminally fluorescein-conjugated peptide, 2 versus 1

increase in mean fluorescence (cell permeability): 2.5 fold
Sequence: LTFCRYWARLCS [compound 2]
